Laboratory results as given in patent publication US20170151192A1, “METHODS, COMPOSITIONS AND DEVICES FOR TREATMENT OF MOTOR AND DEPRESSION SYMPTOMS ASSOCIATED WITH PARKINSON'S DISEASE” (N TO B LTD., priority 2013, published 2017).
Read-outs that look alike come from different tables or passages of the source.

Legend:
MAO-A [1] = target: T1, MAO-A (Rattus norvegicus, UniProt P21396); conditions: 0.3 mg/kg, 1 hour after treatment
Description: (§1) Adult (3-month old) male Sprague Dawley rats, weighing about 250 grams, were from Harlan Laboratories, Inc Israel.

MAO-B [2] = target: T2, MAO-B (Rattus norvegicus, UniProt P19643); conditions: 0.1 and 0.3 mg/kg, 1 hour after treatment
T2 sequence (P19643 whole entry): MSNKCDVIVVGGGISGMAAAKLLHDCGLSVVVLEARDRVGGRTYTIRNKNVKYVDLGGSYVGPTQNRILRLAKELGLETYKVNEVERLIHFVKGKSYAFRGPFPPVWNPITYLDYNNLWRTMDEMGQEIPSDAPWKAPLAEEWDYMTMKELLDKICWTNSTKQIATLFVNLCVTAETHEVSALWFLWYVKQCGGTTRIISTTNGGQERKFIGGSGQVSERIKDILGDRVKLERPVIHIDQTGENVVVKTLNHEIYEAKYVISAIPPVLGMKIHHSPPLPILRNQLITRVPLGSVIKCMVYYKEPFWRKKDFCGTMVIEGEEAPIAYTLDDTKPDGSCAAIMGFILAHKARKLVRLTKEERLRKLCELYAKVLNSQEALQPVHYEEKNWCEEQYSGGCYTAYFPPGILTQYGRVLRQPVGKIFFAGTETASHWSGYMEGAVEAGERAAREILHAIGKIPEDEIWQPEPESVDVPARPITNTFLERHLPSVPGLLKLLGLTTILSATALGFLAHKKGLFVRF
Description: as §1

MAO-A [3] = target: T1, MAO-A; test: in vivo; conditions: for inhibition at 6 mg/kg / inhibition at 0.6 mg/kg / inhibition at 1.5 mg/kg: rat, inhaled or nasal
Protocol: (§2) Control liquid formulations included vehicle only.
(§3) The animals were acutely administered intranasally and sacrificed 4 hours following drug/vehicle administration. The brain regions, hippocampus and striatum, as well as the small intestine were dissected out. […] In brief, samples were dissected out at 4° C. and homogenized. Homogenates were incubated with [C^14]serotonin for 30 minutes (final concentration 100 μM) as a substrate for MAO-A, or with [C^14]phenylethylamine for 20 minutes (final concentration 100 μM) as a substrate for MAO-B. The radioactivity was determined by liquid- scintillation.

MAO-B [4] = target: T2, MAO-B; test: in vivo
Protocol: as §2, §3

MAO-A [5] = target: T1, MAO-A
Protocol: (§4) The animals were acutely administered and sacrificed 4 hours following drug/vehicle administration. The brain regions, hippocampus and striatum, as well as the small intestine were dissected out. All tissues were frozen at −80° C. for further analysis.

MAO-B [6] = target: T2, MAO-B; conditions: both regimens (intranasal and oral), 0.24 and 0.6 mg/Kg, p<0.05, data not shown
Protocol: as §4

[7] = tested on: pressor responses to oral tyramine; conditions: rats, cited from earlier work
[8] = extensive first pass hepatic metabolism; cited from earlier work

T1 sequence (P21396 whole entry): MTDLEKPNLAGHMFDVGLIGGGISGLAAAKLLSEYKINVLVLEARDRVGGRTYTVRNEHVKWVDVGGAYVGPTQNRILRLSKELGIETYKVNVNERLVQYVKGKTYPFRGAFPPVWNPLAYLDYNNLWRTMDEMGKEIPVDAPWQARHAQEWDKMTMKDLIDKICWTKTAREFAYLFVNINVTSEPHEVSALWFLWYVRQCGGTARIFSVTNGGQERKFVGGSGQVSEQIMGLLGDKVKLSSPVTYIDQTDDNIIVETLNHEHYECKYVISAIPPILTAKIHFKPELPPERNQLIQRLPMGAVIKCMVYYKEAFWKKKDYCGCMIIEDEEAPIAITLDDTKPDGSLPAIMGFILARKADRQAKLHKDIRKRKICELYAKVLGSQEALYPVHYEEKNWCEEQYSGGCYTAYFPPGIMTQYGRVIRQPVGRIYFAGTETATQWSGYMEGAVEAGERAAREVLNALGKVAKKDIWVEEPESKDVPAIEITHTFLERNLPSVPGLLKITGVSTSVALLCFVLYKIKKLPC

C#CCN[C@@H]1CCc2ccccc21 [Rasagiline, N-propargyl-1-(R)-aminoindan]
brain MAO-A inhibition, NAS delivery compared to IP (MAO-A [1]; FIG. 1): significantly inhibited
liver MAO-A inhibition, IP compared to NAS delivery (MAO-A [1]; FIG. 3): significantly inhibited
difference in brain MAO-B inhibition between IP and NAS (MAO-B [2]; FIG. 2): no significant difference
differences in liver MAO-B inhibition between IP and NAS (MAO-B [2]; FIG. 4): No significant differences
MAO-A activity in striatum and hippocampus, dose dependence (MAO-A [3]; intranasal powder formulation, 0.24, 0.6, 1.5 and 6 mg/kg, FIG. 6): dose-dependently inhibited
striatal MAO-A inhibition, powder compared to liquid formulation (MAO-A [3]; intranasal, 0.6 mg/kg, FIG. 5): significant higher inhibition
inhibition at 6 mg/kg (MAO-A [3]; read-out: MAO-A inhibition in striatum and hippocampus, intranasal, 6 mg/kg powder formulation): > 90%
inhibition at 0.6 mg/kg (MAO-A [3]; read-out: MAO-A inhibition, Brain, intranasal, 0.6 mg/kg liquid formulation, 4 h): 33%
inhibition at 0.6 mg/kg (MAO-A [3]; read-out: MAO-A inhibition, Brain, intranasal, 0.6 mg/kg powder formulation, 4 h): 44%
inhibition at 6 mg/kg (MAO-A [3]; read-out: MAO-A inhibition, Brain, intranasal, 6 mg/kg liquid formulation, 4 h): 91%
inhibition at 1.5 mg/kg (MAO-A [3]; read-out: MAO-A inhibition, Hippocampus, intranasal, 1.5 mg/kg powder formulation, 4 h): 86%
inhibition at 0.6 mg/kg (MAO-A [3]; read-out: MAO-A inhibition, Intestine, intranasal, 0.6 mg/kg liquid formulation, 4 h): 32%
inhibition at 0.6 mg/kg (MAO-A [3]; read-out: MAO-A inhibition, Intestine, intranasal, 0.6 mg/kg powder formulation, 4 h): 42%
inhibition at 1.5 mg/kg (MAO-A [3]; read-out: MAO-A inhibition, Intestine, intranasal, 1.5 mg/kg powder formulation, 4 h): 74%
inhibition at 6 mg/kg (MAO-A [3]; read-out: MAO-A inhibition, Intestine, intranasal, 6 mg/kg liquid formulation, 4 h): 86%
inhibition at 6 mg/kg (MAO-A [3]; read-out: MAO-A inhibition, Intestine, intranasal, 6 mg/kg powder formulation, 4 h): 92%
inhibition at 0.6 mg/kg (MAO-A [3]; read-out: MAO-A inhibition, Liver, intranasal, 0.6 mg/kg liquid formulation, 4 h): 19%
inhibition at 0.6 mg/kg (MAO-A [3]; read-out: MAO-A inhibition, Liver, intranasal, 0.6 mg/kg powder formulation, 4 h): 44%
inhibition at 6 mg/kg (MAO-A [3]; read-out: MAO-A inhibition, Liver, intranasal, 6 mg/kg liquid formulation, 4 h): 83%
inhibition at 0.6 mg/kg (MAO-A [3]; read-out: MAO-A inhibition, Striatum, intranasal, 0.6 mg/kg powder formulation, 4 h): 61%
inhibition at 6 mg/kg (MAO-A [3]; read-out: MAO-A inhibition, Striatum, intranasal, 6 mg/kg powder formulation, 4 h): 98%
MAO-B activity inhibition in striatum and hippocampus (MAO-B [4]; intranasal, 0.24 to 6 mg/kg, both powder and liquid formulations, p<0.05 vs vehicle): about 98%
inhibition at 0.6 mg/kg (MAO-B [4]; rat, inhaled or nasal, read-out: MAO-B Inhibition, Intestine, intranasal, 0.6 mg/kg liquid formulation, 4 h): 63%
inhibition at 0.6 mg/kg (MAO-B [4]; rat, inhaled or nasal, read-out: MAO-B Inhibition, Intestine, intranasal, 0.6 mg/kg powder formulation, 4 h): 68%
inhibition at 1.5 mg/kg (MAO-B [4]; rat, inhaled or nasal, read-out: MAO-B Inhibition, Intestine, intranasal, 1.5 mg/kg powder formulation, 4 h): 72%
inhibition at 6 mg/kg (MAO-B [4]; rat, inhaled or nasal, read-out: MAO-B Inhibition, Intestine, intranasal, 6 mg/kg liquid formulation, 4 h): 75%
inhibition at 6 mg/kg (MAO-B [4]; rat, inhaled or nasal, read-out: MAO-B Inhibition, Intestine, intranasal, 6 mg/kg powder formulation, 4 h): 78%
MAO-A inhibition in striatum and hippocampus, intranasal (powder) compared to oral (MAO-A [5]; 0.24 and 0.6 mg/Kg, 4 h, FIGS. 8A-B): significantly increased
MAO-A inhibition in the periphery (small intestine), intranasal compared to P.O. (MAO-A [5]; 0.24 and 0.6 mg/kg, FIG. 9): significantly lower
MAO-B activity inhibition in striatum and hippocampus (MAO-B [6]): about 99%
cheese reaction (MAO-A and MAO-B both inhibited) ([7]; 10 mg/kg oral dose): induces the “cheese reaction”
potentiation of pressor responses to oral tyramine ([7]; 21 days chronic treatment, oral doses up to 2 mg/kg daily): does not potentiate
potentiation of pressor responses to oral tyramine ([7]; single oral doses up to 5 mg/kg): does not potentiate

C#CCN(C)[C@H](C)Cc1ccccc1 [Selegiline, (R)-N-methyl-N-(1-phenylpropan-2-yl)prop-1-yn-3-amine]
oral bioavailability [8]: 4-10%
